# Measured values published in ChEMBL document CHEMBL3124933, “Optimization of brain penetrant 11β-hydroxysteroid dehydrogenase type I inhibitors and in vivo testing in diet-induced obese mice” (J Med Chem, 2014).
# How the values were obtained:
# physchem = conditions: buffer, pH 7.4
# [1] = Ratio of total drug level in brain to blood in Han Wistar rat at 30 mg/kg, po measured at 1 hr by LC-MS/MS analysis; format: ADME, organism-based; parameters: dose 30 mg/kg, route oral; conditions: read-out: BBR
# [2] = Oral bioavailability in Han Wistar rat; format: ADME, organism-based; conditions: in vivo
# [3] = Ratio of free drug level in brain to blood in diet-induced obese C57B6 mouse model at 4 to 40 mg/kg/day administered through diet for 21 days measured on day 24; format: ADME, organism-based; conditions: po
# [4] = Oral bioavailability in Han Wistar rat at 7.4 umol/kg; format: ADME, organism-based; conditions: in vivo
# [5] = Volume of distribution at steady state in Han Wistar rat at 5.2 umol/kg, iv; format: ADME, organism-based; conditions: in vivo, read-out: Vdss
# [6] = Clearance in Han Wistar rat at 5.2 umol/kg, iv; format: ADME, organism-based; conditions: in vivo
# [7] = AUC in C57B6 mouse at 17.6 umol/kg, po; format: ADME, organism-based, Plasma; conditions: whole blood
# [8] = Clearance in C57B6 mouse at 3.5 umol/kg, iv; format: ADME, organism-based; conditions: in vivo
# [9] = Volume of distribution at steady state in C57B6 mouse at 3.5 umol/kg, iv; format: ADME, organism-based; conditions: in vivo, read-out: Vdss
# [10] = Ratio of free drug level in brain to blood in Han Wistar rat at 30 mg/kg, po measured at 1 hr by LC-MS/MS analysis; format: ADME, organism-based; parameters: dose 30 mg/kg, route oral
# [11] = Oral bioavailability in C57B6 mouse at 17.6 umol/kg; format: ADME, organism-based; conditions: in vivo
# [12] = AUC in Han Wistar rat whole blood at 7.4 umol/kg, po
# [13] = Clearance in iv dosed Han Wistar rat; format: ADME, organism-based; conditions: in vivo
# [14] = Apparent permeability from apical to basolateral side in MDCK cells; format: ADME, cell-based, Canis lupus familiaris; conditions: dog
# [15] = Ratio of free drug level in brain to blood in diet-induced obese C57B6 mouse model at 20 mg/kg administered through diet for 21 days measured on day 24; format: ADME, organism-based; parameters: dose 20 mg/kg; conditions: po
# [16] = Oral bioavailability in Han Wistar rat at 12.3 umol/kg; format: ADME, organism-based; conditions: in vivo
# [17] = AUC in Han Wistar rat at 12.3 umol/kg, po; format: ADME, organism-based, Plasma; conditions: whole blood
# [18] = Volume of distribution at steady state in Han Wistar rat at 3.1 umol/kg, iv; format: ADME, organism-based; conditions: in vivo, read-out: Vdss
# [19] = Clearance in Han Wistar rat at 3.1 umol/kg, iv; format: ADME, organism-based; conditions: in vivo
# [20] = Oral bioavailability in C57B6 mouse at 14.3 umol/kg; format: ADME, organism-based; conditions: in vivo
# [21] = AUC in C57B6 mouse at 14.3 umol/kg, po; format: ADME, organism-based, Plasma; conditions: whole blood
# [22] = Clearance in C57B6 mouse at 4 umol/kg, iv; format: ADME, organism-based; conditions: in vivo
# [23] = Volume of distribution at steady state in C57B6 mouse at 4 umol/kg, iv; format: ADME, organism-based; conditions: in vivo, read-out: Vdss
SMILES,logD (physchem),Kp at 1 h [1],bioavailability [2],further results
CCOc1nc(C2CC2)c(C(=O)N[C@H]2C3CC4CC2C[C@](O)(C4)C3)s1,2.9,–,–,–
O=C(N[C@H]1C2CC3CC1C[C@](O)(C3)C2)c1cncs1,0.8,–,–,–
COc1c(C(=O)NC2C3CC4CC2CC(O)(C4)C3)cnn1C (stereo unspecified),0.4,0.1,27%,–
CCCSc1nc(C)sc1C(=O)N[C@H]1C2CC3CC1C[C@](O)(C3)C2,3.1,–,–,–
O=C(N[C@H]1C2CC3CC1C[C@](O)(C3)C2)c1sc(O[C@@H]2CCCO2)nc1C1CC1,2.4,–,–,–
Cc1nc(C(F)(F)F)c(C(=O)N[C@H]2C3CC4CC2C[C@](O)(C4)C3)s1,1.5,–,–,–
Cc1nc(OC(C)C)c(C(=O)N[C@H]2C3CC4CC2C[C@](O)(C4)C3)s1,3,–,–,–
COCCOc1nc(C2CC2)c(C(=O)N[C@H]2C3CC4CC2C[C@](O)(C4)C3)s1,–,1.2,23%,clearance [13]: 27 mL/min/kg
C[C@@H]1CN(c2ncc(C(=O)NC3C4CC5CC3CC(O)(C5)C4)c([C@H]3CCCO3)n2)C[C@H](C)O1 (stereo partly specified),2.3,0.3,35%,Papp A→B [14]: 23 ×10⁻⁶ cm/s
O=C(N[C@H]1C2CC3CC1C[C@](O)(C3)C2)c1sc(OCCO)nc1C1CC1,1.6,0.2,25%,clearance [13]: 5 mL/min/kg
Cc1nc(OCC(F)(F)F)c(C(=O)N[C@H]2C3CC4CC2C[C@](O)(C4)C3)s1,3.1,–,–,–
O=C(N[C@H]1C2CC3CC1C[C@](O)(C3)C2)c1sc(OCC2CC2)nc1C1CC1,3.6,–,–,–
N#CC1(COc2nc(C3CC3)c(C(=O)N[C@H]3C4CC5CC3C[C@](O)(C5)C4)s2)CC1,2.6,0.4,–,Kp uu at 504 h [15]: 0.2; bioavailability [16]: 79%; AUC [17]: 7.9 µM·h; Vd [18]: 0.6 L/kg; clearance [19]: 16 mL/min/kg; bioavailability [20]: 73%; AUC [21]: 12 µM·h; clearance [22]: 18 mL/min/kg; Kp uu at 1 h [10]: 0.4; Vd [23]: 1 L/kg
O=C(N[C@H]1C2CC3CC1C[C@](O)(C3)C2)c1sc(OC2CCOCC2)nc1C1CC1,2.7,1.2,53%,clearance [13]: 21 mL/min/kg
COc1nc(C)sc1C(=O)N[C@H]1C2CC3CC1C[C@](O)(C3)C2,2,1.2,23%,clearance [13]: 22 mL/min/kg
COc1ncsc1C(=O)NC1C2CC3CC1CC(O)(C3)C2 (stereo unspecified),1.7,–,–,–
COc1nc(C2CC2)c(C(=O)N[C@H]2C3CC4CC2C[C@](O)(C4)C3)s1,2.6,1.8,45%,clearance [13]: 15 mL/min/kg
CCOc1nc(C)sc1C(=O)N[C@H]1C2CC3CC1C[C@](O)(C3)C2,2.6,–,–,–
Cc1nc(OC2COC2)c(C(=O)N[C@H]2C3CC4CC2C[C@](O)(C4)C3)s1,1.5,–,–,–
C[C@@H]1CN(c2ncc(C(=O)NC3C4CC5CC3CC(O)(C5)C4)c(C3CCCC3)n2)C[C@H](C)O1 (stereo partly specified),3.6,–,70%,Papp A→B [14]: 20 ×10⁻⁶ cm/s
O=C(NC1C2CC3CC1CC(O)(C3)C2)c1cnc(N[C@H]2CCOC2)nc1C1CCCC1 (stereo partly specified),–,–,64%,Papp A→B [14]: 3 ×10⁻⁶ cm/s
COC[C@@H](C)Oc1nc(C2CC2)c(C(=O)N[C@H]2C3CC4CC2C[C@](O)(C4)C3)s1,2.6,–,–,–
CC(C)Oc1nc(C2CC2)c(C(=O)N[C@H]2C3CC4CC2C[C@](O)(C4)C3)s1,3.4,–,–,–
COC[C@H](C)Oc1nc(C2CC2)c(C(=O)N[C@H]2C3CC4CC2C[C@](O)(C4)C3)s1,2.8,–,–,–

# Second part, led by results:
logD (physchem),Kp at 1 h [1],bioavailability [2],SMILES,further results
2.1,–,–,CNc1nc([C@H]2CCCO2)c(C(=O)N[C@H]2C3CC4CC2C[C@](O)(C4)C3)s1,–
2.6,1.1,–,O=C(N[C@H]1C2CC3CC1C[C@](O)(C3)C2)c1sc(OC2CCOCC2)nc1[C@H]1CCCO1,Kp uu at 504 h [3]: 0.5; bioavailability [4]: 83%; Vd [5]: 1 L/kg; clearance [6]: 34 mL/min/kg; AUC [7]: 20.6 µM·h; clearance [8]: 26 mL/min/kg; Vd [9]: 1.7 L/kg; Kp uu at 1 h [10]: 0.9; bioavailability [11]: 139%; AUC [12]: 3.9 µM·h
1.8,–,–,COCCc1nc([C@H]2CCCO2)c(C(=O)N[C@H]2C3CC4CC2C[C@](O)(C4)C3)s1,–
2.4,–,–,N#CC1CC(Oc2nc([C@H]3CCCO3)c(C(=O)NC3C4CC5CC3CC(O)(C5)C4)s2)C1 (stereo partly specified),–
1.6,–,0%,O=C(NC1C2CC3CC1CC(O)(C3)C2)c1scnc1[C@H]1CCCO1 (stereo partly specified),clearance [13]: 52 mL/min/kg
1.8,–,–,Cc1nc([C@@H]2CCCO2)c(C(=O)N[C@H]2C3CC4CC2C[C@](O)(C4)C3)s1,–
3.2,–,–,Cc1nc(OC2CCC2)c(C(=O)NC2C3CC4CC2CC(O)(C4)C3)s1 (stereo unspecified),–
2.4,–,–,CCc1nc([C@H]2CCCO2)c(C(=O)N[C@H]2C3CC4CC2C[C@](O)(C4)C3)s1,–
1.9,–,–,COCc1nc([C@H]2CCCO2)c(C(=O)N[C@H]2C3CC4CC2C[C@](O)(C4)C3)s1,–
1.9,1.6,12%,Cc1nc(C2CC2)c(C(=O)N[C@H]2C3CC4CC2C[C@](O)(C4)C3)s1,clearance [13]: 14 mL/min/kg
2.1,0.8,24%,COCCOc1nc([C@H]2CCCO2)c(C(=O)NC2C3CC4CC2CC(O)(C4)C3)s1 (stereo partly specified),clearance [13]: 8 mL/min/kg
0.4,< 0.05,65%,CS(=O)(=O)Cc1nc([C@H]2CCCO2)c(C(=O)NC2C3CC4CC2CC(O)(C4)C3)s1 (stereo partly specified),clearance [13]: 17 mL/min/kg
1.7,–,–,Nc1nc([C@H]2CCCO2)c(C(=O)N[C@H]2C3CC4CC2C[C@](O)(C4)C3)s1,–
2.8,0.9,16%,COC[C@H](C)Oc1nc([C@H]2CCCO2)c(C(=O)NC2C3CC4CC2CC(O)(C4)C3)s1 (stereo partly specified),clearance [13]: 13 mL/min/kg
2.7,–,–,CN(C)c1nc([C@H]2CCCO2)c(C(=O)N[C@H]2C3CC4CC2C[C@](O)(C4)C3)s1,–
1.8,1.5,11%,Cc1nc([C@H]2CCCO2)c(C(=O)N[C@H]2C3CC4CC2C[C@](O)(C4)C3)s1,clearance [13]: 17 mL/min/kg
1.3,–,–,Cc1nc(C)c(C(=O)N[C@H]2C3CC4CC2C[C@](O)(C4)C3)s1,–
2.3,1.1,40%,COc1nc([C@H]2CCCO2)c(C(=O)N[C@H]2C3CC4CC2C[C@](O)(C4)C3)s1,clearance [13]: 21 mL/min/kg
